Data as given in patent publication EP4122499A1, “FIBROBLAST ACTIVATION PROTEIN INHIBITORS AND USE THEREOF” (3B Pharmaceuticals GmbH, priority 2021, dated 2023).

Legend:
[1] = biological target: T1, FAP-expressing human WI-38 fibroblasts (Homo sapiens, UniProt Q12884); assay: Competitive FACS binding assay (displacement of Cy5-labeled FAP inhibitor 3BP-2935); conditions: 3 nM Cy5-labeled 3BP-2935, 4°C, 1 hour
T1 construct: FAP-expressing human WI-38 fibroblasts (ECACC 90020107) were cultured in EMEM; host or cells: WI-38 human fibroblasts
T1 sequence (Q12884 1-760): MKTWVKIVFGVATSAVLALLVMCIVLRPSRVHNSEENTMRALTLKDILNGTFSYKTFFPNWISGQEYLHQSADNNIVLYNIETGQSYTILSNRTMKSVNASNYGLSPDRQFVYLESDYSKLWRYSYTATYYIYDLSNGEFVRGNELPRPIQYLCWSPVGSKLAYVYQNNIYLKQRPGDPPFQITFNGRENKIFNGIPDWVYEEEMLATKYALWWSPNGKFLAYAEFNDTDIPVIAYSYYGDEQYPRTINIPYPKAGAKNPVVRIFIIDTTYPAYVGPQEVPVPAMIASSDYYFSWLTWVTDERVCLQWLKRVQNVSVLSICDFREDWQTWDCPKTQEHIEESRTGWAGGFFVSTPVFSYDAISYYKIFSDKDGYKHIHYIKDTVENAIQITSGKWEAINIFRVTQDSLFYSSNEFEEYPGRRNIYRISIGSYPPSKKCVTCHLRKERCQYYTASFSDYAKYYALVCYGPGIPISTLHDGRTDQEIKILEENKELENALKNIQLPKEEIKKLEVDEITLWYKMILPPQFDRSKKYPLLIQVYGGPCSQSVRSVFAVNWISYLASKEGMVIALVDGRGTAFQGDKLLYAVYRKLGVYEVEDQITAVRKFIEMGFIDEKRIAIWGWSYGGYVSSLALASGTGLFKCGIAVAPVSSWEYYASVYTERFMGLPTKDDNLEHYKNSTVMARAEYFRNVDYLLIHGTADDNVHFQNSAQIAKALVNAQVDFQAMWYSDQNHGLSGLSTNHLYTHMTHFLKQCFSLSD
Description: In order to determine binding of compounds according to the present invention to FAP-expressing cells, a competitive FACS binding assay was established.
Cells were diluted in FACS buffer to a final concentration of 100.000 cells per ml and 200 µl of the cell suspension are transferred to a u-shaped non-binding 96-well plate (Greiner).
Cell were washed twice with FACS buffer (see above) and resuspended in 200 µl FACS buffer. Cells were analyzed in an Attune NxT flow cytometer (Thermo Fisher Scientific). Median fluorescence intensities (Cy5 channel) was calculated by Attune NxT software and plotted against test compound concentrations. Four parameter logistic (4PL) curve fitting and pIC50 calculations were performed using ActivityBase software.

Recombinant human DPP4 = biological target: T2, Recombinant human DPP4 (Homo sapiens, UniProt P27487); assay: DPP4 protease activity assay; assay type: biochemical; conditions: 20 µM GP-AMC substrate; for IC50: read-out: pIC50 (DPP4) (converted)
T2 construct: purchased R&D systems 9168-SE
Description: (§1) The PREP activity assay was performed using the FACS buffer (PBS including 1% FBS, Sigma-Aldrich, Cat# D8537). […] The DPP4 activity assay was performed in DPP assay buffer (25 mM Tris, pH 8.0).
(§2) Four parameter logistic (4PL) curve fitting and pIC50 calculations were performed using ActivityBase software.

recombinant human PREP = biological target: T3, recombinant human PREP (Homo sapiens, UniProt P48147); assay: PREP protease activity assay; assay type: biochemical; conditions: 50 µM Z-GP-AMC substrate
T3 construct: purchased R&D systems 4308-SE
T3 sequence (P48147 1-710): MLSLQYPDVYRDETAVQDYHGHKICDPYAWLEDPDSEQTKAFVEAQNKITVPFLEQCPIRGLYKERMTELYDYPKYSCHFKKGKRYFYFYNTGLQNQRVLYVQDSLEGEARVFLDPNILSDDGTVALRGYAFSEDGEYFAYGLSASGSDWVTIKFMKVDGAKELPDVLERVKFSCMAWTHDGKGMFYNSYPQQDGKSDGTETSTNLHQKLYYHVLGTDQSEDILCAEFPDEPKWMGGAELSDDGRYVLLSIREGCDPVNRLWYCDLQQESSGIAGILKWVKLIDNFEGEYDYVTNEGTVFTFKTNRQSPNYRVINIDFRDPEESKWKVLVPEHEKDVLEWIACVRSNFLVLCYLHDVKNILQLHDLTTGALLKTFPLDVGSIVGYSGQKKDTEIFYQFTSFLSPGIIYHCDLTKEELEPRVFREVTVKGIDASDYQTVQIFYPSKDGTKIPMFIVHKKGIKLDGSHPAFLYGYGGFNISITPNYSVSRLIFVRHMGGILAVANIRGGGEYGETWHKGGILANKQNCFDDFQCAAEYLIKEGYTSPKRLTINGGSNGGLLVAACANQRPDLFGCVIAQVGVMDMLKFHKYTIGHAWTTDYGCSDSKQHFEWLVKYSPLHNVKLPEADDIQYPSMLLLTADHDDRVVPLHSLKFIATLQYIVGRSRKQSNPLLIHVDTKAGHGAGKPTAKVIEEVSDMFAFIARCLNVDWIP
Description: as §1, §2

Human recombinant FAP [2] = biological target: T4, Human recombinant FAP (Homo sapiens, UniProt Q12884); assay: FRET-based FAP protease activity assay (human); assay type: biochemical; parameters: purchased R&D systems 3715-SE; conditions: FRET-peptide substrate, 37°C; for IC50: read-out: pIC50 (Activity) (converted)
T4 sequence (Q12884 1-760): T1 sequence (Q12884 1-760)
Description: (§3) In order to determine the inhibitory activity a FRET-based FAP protease activity assay was established.
25 µL of a 30 µM substrate solution, diluted in assay buffer, was added. […] Four parameter logistic (4PL) curve fitting and pIC50 calculations were performed using ActivityBase software (IDBS).

Recombinant mouse FAP = biological target: T5, Recombinant mouse FAP (Mus musculus, UniProt P97321); assay: FRET-based FAP protease activity assay (mouse); assay type: biochemical; conditions: FRET-peptide substrate, 37°C; for IC50: read-out: pIC50 (mouseFAP) (converted)
T5 construct: purchased R&D systems 8647-SE
T5 sequence (P97321 1-761): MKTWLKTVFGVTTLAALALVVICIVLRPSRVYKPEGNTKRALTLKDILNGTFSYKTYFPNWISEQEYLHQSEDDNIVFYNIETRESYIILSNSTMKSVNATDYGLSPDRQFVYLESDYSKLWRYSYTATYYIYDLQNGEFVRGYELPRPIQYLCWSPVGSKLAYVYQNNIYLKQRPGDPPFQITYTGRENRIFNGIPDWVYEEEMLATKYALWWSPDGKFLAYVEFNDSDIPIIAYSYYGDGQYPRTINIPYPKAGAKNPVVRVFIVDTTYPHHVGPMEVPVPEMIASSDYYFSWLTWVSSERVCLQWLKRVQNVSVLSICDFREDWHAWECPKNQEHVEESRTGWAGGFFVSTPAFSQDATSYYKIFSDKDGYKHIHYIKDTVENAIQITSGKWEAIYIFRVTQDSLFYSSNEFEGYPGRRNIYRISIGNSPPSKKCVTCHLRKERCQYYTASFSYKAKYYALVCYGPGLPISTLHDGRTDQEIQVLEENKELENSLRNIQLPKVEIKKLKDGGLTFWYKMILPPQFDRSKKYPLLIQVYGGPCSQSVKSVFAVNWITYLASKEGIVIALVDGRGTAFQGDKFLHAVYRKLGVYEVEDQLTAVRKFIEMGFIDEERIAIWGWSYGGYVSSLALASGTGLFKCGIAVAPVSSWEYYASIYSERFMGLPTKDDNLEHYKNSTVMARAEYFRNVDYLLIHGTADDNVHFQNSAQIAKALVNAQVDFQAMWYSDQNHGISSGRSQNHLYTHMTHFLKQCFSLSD
Description: as §3
25 µL of a 30 µM substrate solution, diluted in assay buffer, was added. […] Four parameter logistic (4PL) curve fitting and pIC50 calculations were performed using ActivityBase software.

Human recombinant FAP [3] = biological target: T4, Human recombinant FAP; assay: Surface plasmon resonance assay (Biacore T200, single cycle kinetics); assay type: binding; conditions: SPR, 25°C; for pKD (Biacore): 1:1 Langmuir binding model; for HL [min] (Biacore): half-life
Description: Surface plasmon resonance studies were performed using a Biacore™ T200 SPR system (Cytiva, formerly GE Healthcare). Briefly, polarized light is directed towards a gold-labeled sensor surface, and minimum intensity reflected light is detected. The angle of reflected light changes as molecules bind and dissociate. […] Test compounds are contacted with the loaded surface, and a real-time interaction profile with the FAP ligand is recorded in a sensorgram. In real-time, the association and dissociation of a binding interaction is measured, enabling calculation of association and dissociation rate constants and the corresponding affinity constants. Importantly, a background response is generated due to the difference in the refractive indices of the running and sample buffers, as well as unspecific binding of the test compounds to the flow cell surface. This background is measured and subtracted by running the sample on a control flow cell coated with the same density of capture antibody in the absence of immobilized FAP. Furthermore, baseline drift correction of the binding data is performed, which is caused by slow dissociation of the captured FAP from the immobilized antibody. This drift is measured by injecting running buffer through a flow cell with the antibody and FAP immobilized to the sensor surface.
Biacore™ CM5 sensor chips were used. […] A 150 µL aliquot was transferred into plastic vials and placed into the sample rack of the Biacore™ T200 instrument. Amine Coupling Kit Reagent solutions were transferred into plastic vials and placed into the sample rack: 90 µL of 0.4 M 1-ethyl-3-(3-dimethylaminopropyl)carbodiimide (EDC), and 90 µL of 0.1 M N-hydroxysuccinimide (NHS). A 130 µL aliquot of 1 M ethanolamine-HCl, pH 8.5, was transferred into plastic vials and placed into the sample rack. The Biacore™ liquid system was set-up as follows: Separate bottles containing distilled water (1 L), Running Buffer (500 mL), as well as an empty bottle for waste were placed onto the buffer tray. A preinstalled program for immobilization was used, with an immobilization level of 7000 RU. Immobilization was performed at 25°C. The immobilization procedure of anti-FAP antibodies was performed, as described in the Table 5. Table 5: Immobilization protocol for anti-FAP antibodies used on the CM5 sensor chip.
Human recombinant FAP was diluted in Running Buffer to a final concentration of 20 µg/mL. A 100 µL aliquot of human FAP-Working-Solution was transferred into plastic vials and placed into a sample rack. A 0.5 mM Compound-Stock-Solution was prepared by dissolving each compound in DMSO. For each test compound, Compound-Stock-Solutions were diluted in Running Buffer (HBST) at 500 nM and further diluted with HBST-DMSO Buffer (0.1% DMSO). SPR binding analyses for binary complexes were performed in SCK mode at 25°C. Following three SCK measurements, a baseline drift was assessed by injecting running buffer through a flow cell, with the antibody and FAP immobilized to the sensor surface. Table 6: Protocol for assessing the binding kinetics.
For each test compound, SPR raw data in the form of resonance units (RU) were plotted as sensorgrams using the Biacore™ T200 control software. The signal from the blank sensorgram was subtracted from that of the test compound sensorgram (blank corrected). The blank corrected sensorgram was corrected for baseline drift by subtracting the sensorgram of a SCK run without the test compound (running buffer only). The association rate (kon), dissociation rate (koff), dissociation constant (KD), and t1/2 were calculated from Blank-normalized SPR data using the 1:1 Langmuir binding model from the Biacore™ T200 evaluation software. Raw data and fit results were imported as text files in IDBS. The pKD value (negative decadic logarithm of dissociation constant) was calculated in the IDBS excel template.

T2 sequence (P27487 whole entry): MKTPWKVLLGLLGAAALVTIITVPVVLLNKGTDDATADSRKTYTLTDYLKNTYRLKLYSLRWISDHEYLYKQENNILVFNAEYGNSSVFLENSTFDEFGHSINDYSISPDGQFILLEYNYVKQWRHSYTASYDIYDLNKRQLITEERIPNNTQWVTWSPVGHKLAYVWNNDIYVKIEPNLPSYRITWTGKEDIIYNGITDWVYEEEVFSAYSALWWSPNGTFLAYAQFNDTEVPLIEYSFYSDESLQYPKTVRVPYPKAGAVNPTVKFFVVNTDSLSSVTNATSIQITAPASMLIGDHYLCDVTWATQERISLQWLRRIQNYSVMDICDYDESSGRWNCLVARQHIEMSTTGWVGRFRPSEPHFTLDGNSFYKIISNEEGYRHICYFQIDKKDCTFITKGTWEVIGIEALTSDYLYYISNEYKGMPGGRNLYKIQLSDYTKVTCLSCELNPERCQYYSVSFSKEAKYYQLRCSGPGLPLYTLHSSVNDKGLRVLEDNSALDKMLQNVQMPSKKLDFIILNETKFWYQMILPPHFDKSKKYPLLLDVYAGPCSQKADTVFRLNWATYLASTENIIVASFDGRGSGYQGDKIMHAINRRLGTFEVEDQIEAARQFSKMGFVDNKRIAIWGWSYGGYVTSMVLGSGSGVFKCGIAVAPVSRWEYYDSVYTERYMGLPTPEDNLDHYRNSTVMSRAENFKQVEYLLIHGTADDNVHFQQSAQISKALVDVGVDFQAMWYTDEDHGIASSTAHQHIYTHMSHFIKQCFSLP

Compound	IC50 [1] [nM]	IC50 (Recombinant human DPP4) [nM]	IC50 (recombinant human PREP) [nM]	IC50 (Human recombinant FAP [2]) [nM]	IC50 (Recombinant mouse FAP) [nM]	pIC50 (FACS) [1]	pIC50 (Activity) (Human recombinant FAP [2])	pKD (Biacore) (Human recombinant FAP [3])	HL [min] (Biacore) (Human recombinant FAP [3])	pIC50 (mouseFAP) (Recombinant mouse FAP)	pIC50 (DPP4) (Recombinant human DPP4)
Cc1cc(S(C)(=O)=O)ccc1-c1ccc2nccc(C(=O)NCC(=O)N3CC(F)(F)C[C@H]3C#N)c2c1	2	794		0.501	1.58						
CS(=O)(=O)c1cc(F)c(-c2ccc3nccc(C(=O)NCC(=O)N4CCC[C@H]4C#N)c3c2)c(F)c1	3.16	> 1000		0.501	1						
N#C[C@@H]1CCCN1C(=O)CNC(=O)c1ccnc2ccc(-c3ccc(C(=O)NCCCN(CC(=O)O)C(=O)CN4CCN(CC(=O)O)CCN(CC(=O)O)CCN(CC(=O)O)CC4)cc3)cc12								>11	>500	8.9	<6
N#C[C@@H]1CC(F)(F)CN1C(=O)CNC(=O)c1cc[n+]([O-])c2ccc(-c3ccc(S(=O)(=O)CCCNC(=O)CN4CCN(CC(=O)O)CCN(CC(=O)O)CCN(CC(=O)O)CC4)cc3)cc12								>11	110	9.1	7
Cc1cc(S(C)(=O)=O)ccc1-c1ccc2nccc(C(=O)NCC(=O)N3CCC[C@H]3C#N)c2c1	12.6	> 1000		0.631	1.26						
N#C[C@@H]1CC(F)(F)CN1C(=O)CNC(=O)c1ccnc2ccc(OCCCN3CCN(C(=O)CN4CCN(CC(=O)O)CCN(CC(=O)O)CCN(CC(=O)O)CC4)CC3)cc12 [drawing 287]									>500	8.8	<6

Now from value to compound, other results behind:

IC50 [1] [nM]	IC50 (Recombinant human DPP4) [nM]	IC50 (recombinant human PREP) [nM]	IC50 (Human recombinant FAP [2]) [nM]	IC50 (Recombinant mouse FAP) [nM]	pIC50 (FACS) [1]	pIC50 (Activity) (Human recombinant FAP [2])	Compound	pKD (Biacore) (Human recombinant FAP [3])	HL [min] (Biacore) (Human recombinant FAP [3])	pIC50 (mouseFAP) (Recombinant mouse FAP)	pIC50 (DPP4) (Recombinant human DPP4)
2.51	> 1000	> 1000	1.58				N#C[C@@H]1CCCN1C(=O)CNC(=O)c1ccnc2cc(-c3cccc(C(=O)O)c3)ccc12				
3.98	> 1000	> 1000	2				N#C[C@@H]1CCCN1C(=O)CNC(=O)c1ccnc2cc(-c3ccc(C(=O)O)cc3)ccc12				
1.58	> 1000		0.631	0.631			CS(=O)(=O)c1ccc(-c2ccc3nccc(C(=O)NCC(=O)N4C[C@@H](F)C[C@H]4C#N)c3c2)cc1				
					9	8.9	CN(CCCN1CCN(C(=O)CN2CCN(CC(=O)O)CCN(CC(=O)O)CCN(CC(=O)O)CC2)CC1)c1ccc2nccc(C(=O)NCC(=O)N3CC(F)(F)C[C@H]3C#N)c2c1	>11	>500	8.6	
50.1	> 1000		3.16	10			CS(=O)(=O)c1ccc(-c2ccc3nccc(C(=O)NCC(=O)N4C[C@H](F)C[C@H]4C#N)c3c2)cc1				
